The target in assay [1] is T1, wild-type PDE5 catalytic domain (Homo sapiens, UniProt O76074).
T1 construct: Construction and Expression of PDE5 Wild-type Catalytic Domain (E534-N875); made in house; host or cells: baculovirus / insect cells (pFastbac1; Sf-9 for virus stocks, T.ni High5 named for expression)
Description: X-ray structure of wild-type PDE5 catalytic domain complexed with Sildenafil. The note with it: X-ray structure of wild-type PDE5 complex; binding in the active site, blocking access for the cGMP substrate.

The target in assay [2] is T2, PDE5* (loop-swapped PDE5 catalytic domain) (Homo sapiens, UniProt O76074, C677D/E669N/H670S/H678E/I665L/I680V/INS676N/L675M/M681L/N661S/P671E/Q666I/Q674L/R658P/R667N/S663Q/S668T/Y664F).
T2 construct: Construction and Expression of PDE5* (E534-E858) in E. coli; made in house; host or cells: E. coli BL21 (DE3), pET21C
Description: Soaking of inhibitor into C2 crystal form of PDE5* and X-ray structure determination. Format: binding. As to the method:
Plate-shaped crystals of apo PDE5* obtained according to methods detailed in EXAMPLE 6 were transferred to a 20 μl drop of 0.1M sodium HEPES and 20% Polyethylene glycol 4000 in square microbridges. To this, 1.0 μl of a 20 mg/ml concentration of inhibitor dissolved in DMSO was added. Crystals were then transferred to a solution of 0.1M sodium HEPES pH 7.4, 20% Polyethylene glycol 4000 with 15% glycerol and then frozen during X-ray data collection.
X-ray diffraction data were collected with an RaxisIV image plate detector on an in-house FR-D rotating anode (Rigaku), with Osmic mirrors (MSC). All data were processed using the HKL package (Otwinowski & Minor, 1997).
Refinement was carried out in the resolution range 30-1.5 Å using CNX (Brünger et al., 1998) with the “mlf” maximum likelihood target function. Partial structure factors from a flat bulk-solvent model and anisotropic B-factor correction were supplied throughout the refinement.

In the case of `CCCc1nn(C)c2c(=O)[nH]c(-c3cc(S(=O)(=O)N4CCN(C)CC4)ccc3OCC)nc12` [Sildenafil, 5-[2-ethoxy-5-(4-methyl-1-piperazinylsulphonyl)phenyl]-1-methyl-3-n-propyl-1,6-dihydro-7H-pyrazolo[4,3-d]pyrimidin-7-one], the mode of inhibition result in assay [1] is “competitive”.

As to `CCCc1nn(C)c2c(=O)[nH]c(-c3ccccc3OCC)nc12` [UK-088,800, 5-(2-ethoxyphenyl)-1-methyl-3-propyl-1,6-dihydro-7H-pyrazolo[4,3-d]pyrimidin-7-one], in assay [2] (PDE5* C2 crystal soaked with ligand, map contoured at 2.5σ, phases prior to incorporation of ligand), the “(fo-fc) electron density map at the active site region” value is “clearly featured peak”. For the same compound, in assay [2] (X-ray structure of PDE5* complex, binding in the active site, blocking access for the cGMP substrate), the mode of inhibition entry is on record as “competitive”.

The record behind these values is patent US20050202549A1, “Crystal structure” (Pfizer Inc, priority 2001, published 2005).
